This data set relates to CCRIS mutagenicity, Ames/micronucleus/aberration tests. Kind of data set: CCRIS mutagenicity studies.
[1] abbreviates: Test System: AMES SALMONELLA TYPHIMURIUM, Strain/Indicator: TA98, Metabolic Activation: NONE.
The mark [2] stands for this setting: Test System: AMES SALMONELLA TYPHIMURIUM, Strain/Indicator: TA98, Metabolic Activation: NONE, Method: PREINCUBATION
[3] abbreviates: Test System: AMES SALMONELLA TYPHIMURIUM, Strain/Indicator: TA98, Metabolic Activation: NONE, Method: STANDARD PLATE.
Where [4] appears, read: Test System: AMES SALMONELLA TYPHIMURIUM, Strain/Indicator: TA98, Metabolic Activation: RAT, LIVER, S-9, AROCLOR 1254, Method: PREINCUBATION
The mark [5] stands for this setting: Test System: AMES SALMONELLA TYPHIMURIUM, Strain/Indicator: TA100, Metabolic Activation: NONE, Method: PREINCUBATION
[6] abbreviates: Test System: AMES SALMONELLA TYPHIMURIUM, Strain/Indicator: TA100, Metabolic Activation: NONE, Method: STANDARD PLATE.
Setting [7] is: Test System: AMES SALMONELLA TYPHIMURIUM, Strain/Indicator: TA102, Metabolic Activation: NONE, Method: STANDARD PLATE.
Where [8] appears, read: Test System: AMES SALMONELLA TYPHIMURIUM, Strain/Indicator: TA1535, Metabolic Activation: NONE, Method: PREINCUBATION
Where [9] appears, read: Test System: AMES SALMONELLA TYPHIMURIUM, Strain/Indicator: TA1535, Metabolic Activation: RAT, LIVER, S-9, AROCLOR 1254, Method: PREINCUBATION
[10] abbreviates: Test System: AMES SALMONELLA TYPHIMURIUM, Strain/Indicator: TA100, Metabolic Activation: RAT, LIVER, S-9, AROCLOR 1254, Method: STANDARD PLATE.
[11] abbreviates: Test System: AMES SALMONELLA TYPHIMURIUM, Strain/Indicator: TA98, Metabolic Activation: RAT, LIVER, S-9, AROCLOR 1254, Method: STANDARD PLATE.

The source made the active and inactive calls. The rule behind the calls is not given here.

With `Oc1cccc(O)c1O`, the mutagenic call is, setting by setting: (End Point: IN VITRO CHROMOSOMAL ABERRATIONS, Test System: V79 CELLS, Metabolic Activation: NONE) “active; positive; active at higher levels at all ph values”; (Test System: AMES SALMONELLA TYPHIMURIUM, Strain/Indicator: TA97, Metabolic Activation: NONE, Method: PREINCUBATION) “active; positive”; (Test System: AMES SALMONELLA TYPHIMURIUM, Strain/Indicator: TA97, Metabolic Activation: RAT, LIVER, S-9, PHENOBARBITAL, Method: PREINCUBATION) “active; positive”; under setting [1], “inactive; negative”; under setting [2], “inactive; negative”; under setting [3], “inactive; negative”. Moreover, the mutagenic call reads like this: under setting [4], “inactive; negative”; (Test System: AMES SALMONELLA TYPHIMURIUM, Strain/Indicator: TA98, Metabolic Activation: RAT, LIVER, S-9, PHENOBARBITAL, Method: PREINCUBATION) “active; positive”; (Test System: AMES SALMONELLA TYPHIMURIUM, Strain/Indicator: TA98, Metabolic Activation: S-9) “inactive; negative”; (Test System: AMES SALMONELLA TYPHIMURIUM, Strain/Indicator: TA98, Metabolic Activation: S-9, Method: STANDARD PLATE) “active; positive”; under setting [5], “active; positive”; under setting [6], “inactive; negative”. Besides, the mutagenic call by setting is: (Test System: AMES SALMONELLA TYPHIMURIUM, Strain/Indicator: TA100, Metabolic Activation: RAT, LIVER, S-9, PHENOBARBITAL, Method: PREINCUBATION) “active; positive”; (Test System: AMES SALMONELLA TYPHIMURIUM, Strain/Indicator: TA100, Metabolic Activation: S-9, Method: STANDARD PLATE) “active; positive”; under setting [7], “active; positive”; (Test System: AMES SALMONELLA TYPHIMURIUM, Strain/Indicator: TA102, Metabolic Activation: RAT, LIVER, S-9, AROCLOR 1254, Method: PREINCUBATION) “inactive; negative”; under setting [8], “inactive; negative”; under setting [9], “inactive; negative”. The mutagenic call is, setting by setting: (Test System: AMES SALMONELLA TYPHIMURIUM, Strain/Indicator: TA2638, Metabolic Activation: NONE, Method: STANDARD PLATE) “active; positive”; (Test System: E. COLI, Strain/Indicator: WP2 (PKM101), Metabolic Activation: NONE, Method: STANDARD PLATE) “active; positive”; (Test System: E. COLI, Strain/Indicator: WP2 UVRA (PKM101), Metabolic Activation: NONE, Method: STANDARD PLATE) “active; positive”.

For the molecule `Oc1cccc2ccc3[nH]c4ccc5ccccc5c4c3c12`, the mutagenic call (Test System: AMES SALMONELLA TYPHIMURIUM, Strain/Indicator: TM677, Metabolic Activation: NONE, Method: PREINCUBATION) is “inactive; negative”; the mutagenic call (Test System: AMES SALMONELLA TYPHIMURIUM, Strain/Indicator: TM677, Metabolic Activation: RAT, LIVER, S-9, 3-METHYLCHOLANTHRENE (1%), Method: PREINCUBATION) is “inactive; negative”; the mutagenic call (Test System: AMES SALMONELLA TYPHIMURIUM, Strain/Indicator: TM677, Metabolic Activation: RAT, LIVER, S-9, 3-METHYLCHOLANTHRENE (10%), Method: PREINCUBATION) was “inactive; negative”; the mutagenic call (Test System: AMES SALMONELLA TYPHIMURIUM, Strain/Indicator: TM677, Metabolic Activation: RAT, LIVER, S-9, AROCLOR 1254 (10%), Method: PREINCUBATION) is “inactive; negative”.

Turning to `CCN(N)c1ccccc1`, the mutagenic call was “active; positive” under setting [6]; “inactive; negative” under setting [10]; “inactive; negative” under setting [7]; “active; positive” (Test System: AMES SALMONELLA TYPHIMURIUM, Strain/Indicator: TA102, Metabolic Activation: RAT, LIVER, S-9, AROCLOR 1254, Method: STANDARD PLATE).

Consider `CC1(C)S[C@@H]2[C@H](NC(=O)COc3ccccc3)C(=O)N2[C@H]1C(=O)O`, for which the mutagenic call was “inactive; negative” (Test System: AMES SALMONELLA TYPHIMURIUM, Strain/Indicator: TA98, Metabolic Activation: HAMSTER, LIVER, S-9, AROCLOR 1254, Method: PREINCUBATION); “inactive; negative” under setting [2]; “inactive; negative” under setting [4]; “inactive; negative” (Test System: AMES SALMONELLA TYPHIMURIUM, Strain/Indicator: TA100, Metabolic Activation: HAMSTER, LIVER, S-9, AROCLOR 1254, Method: PREINCUBATION); “inactive; negative” under setting [5]; “inactive; negative” (Test System: AMES SALMONELLA TYPHIMURIUM, Strain/Indicator: TA100, Metabolic Activation: RAT, LIVER, S-9, AROCLOR 1254, Method: PREINCUBATION). The mutagenic call is, setting by setting: (Test System: AMES SALMONELLA TYPHIMURIUM, Strain/Indicator: TA1535, Metabolic Activation: HAMSTER, LIVER, S-9, AROCLOR 1254, Method: PREINCUBATION) “inactive; negative”; under setting [8], “inactive; negative”; under setting [9], “inactive; negative”; (Test System: AMES SALMONELLA TYPHIMURIUM, Strain/Indicator: TA1537, Metabolic Activation: HAMSTER, LIVER, S-9, AROCLOR 1254, Method: PREINCUBATION) “inactive; negative”; (Test System: AMES SALMONELLA TYPHIMURIUM, Strain/Indicator: TA1537, Metabolic Activation: NONE, Method: PREINCUBATION) “inactive; negative”; (Test System: AMES SALMONELLA TYPHIMURIUM, Strain/Indicator: TA1537, Metabolic Activation: RAT, LIVER, S-9, AROCLOR 1254, Method: PREINCUBATION) “inactive; negative”. Further, the mutagenic call by setting is: (Test System: MOUSE LYMPHOMA, Strain/Indicator: L5178Y (TK+/TK-), Metabolic Activation: NONE, Method: SUSPENSION/PLATE) “inactive; negative”; (Test System: MOUSE LYMPHOMA, Strain/Indicator: L5178Y (TK+/TK-), Metabolic Activation: RAT, LIVER, S-9, Method: SUSPENSION/PLATE) “active; positive”.

For `CCCC(=O)Nc1ccc(OCC(O)CNC(C)C)c(C(C)=O)c1` (stereo unspecified), the mutagenic call was “inactive; negative” under setting [1]; “inactive; negative” under setting [3]; “inactive; negative” (Test System: AMES SALMONELLA TYPHIMURIUM, Strain/Indicator: TA98, Metabolic Activation: RAT, LIVER, S-9, AROCLOR 1254); “inactive; negative” under setting [11]; “inactive; negative” (Test System: AMES SALMONELLA TYPHIMURIUM, Strain/Indicator: TA100, Metabolic Activation: NONE); “inactive; negative” under setting [6]. For the same molecule, the mutagenic call (Test System: AMES SALMONELLA TYPHIMURIUM, Strain/Indicator: TA100, Metabolic Activation: RAT, LIVER, S-9, AROCLOR 1254) is “inactive; negative”; the mutagenic call under setting [10] is “inactive; negative”; the mutagenic call (Test System: AMES SALMONELLA TYPHIMURIUM, Strain/Indicator: TA1535, Metabolic Activation: NONE) was “inactive; negative”; the mutagenic call (Test System: AMES SALMONELLA TYPHIMURIUM, Strain/Indicator: TA1535, Metabolic Activation: RAT, LIVER, S-9, AROCLOR 1254) was “inactive; negative”; the mutagenic call (Test System: AMES SALMONELLA TYPHIMURIUM, Strain/Indicator: TA1537, Metabolic Activation: NONE) is “inactive; negative”; the mutagenic call (Test System: AMES SALMONELLA TYPHIMURIUM, Strain/Indicator: TA1537, Metabolic Activation: RAT, LIVER, S-9, AROCLOR 1254) is “inactive; negative”.

As for `COC(=O)C12OC1(C)C(C(C)C)OC2=O` (stereo unspecified), the mutagenic call was “active; positive” (Test System: AMES SALMONELLA TYPHIMURIUM, Strain/Indicator: TA98, Metabolic Activation: NONE, Method: DISK ASSAY); “active; positive” under setting [3]; “active; positive” (Test System: AMES SALMONELLA TYPHIMURIUM, Strain/Indicator: TA98, Metabolic Activation: RAT, LIVER, S-9, AROCLOR 1254, Method: DISK ASSAY); “active; positive” under setting [11]; “inactive; negative” under setting [6]; “active; positive” under setting [10].

These data come from PubChem BioAssay AID1259407 (Chemical Carcinogenesis Research Information System (CCRIS), 2018).
